Earlier results on one compound are cited in publication PMC6714113 (Research in Pharmaceutical Sciences, 2019).

For this series the following is noted: read-out: IC50 (cytotoxicity).

Usually IC50 stands for the midpoint of a concentration-inhibition curve. Turning to `N[C@@H](Cc1ccc(B(O)O)cc1)C(=O)O` [BPA, boronophenylalanine], the IC50 was above 4 mM.
